# Measurements as given in patent US20100292289A1 (priority 2007, published 2010).
# Where two headings read alike, the source gives them in different places.
# Assays:
# CB1 receptor [1] = biological target: T1, CB1 receptor (Homo sapiens, UniProt P21554); test: FLIPR calcium flux assay, agonist format, CB1; assay type: cell-based; conditions: Emax of reference agonist CP-55,940 as 100%
# Description: (§1) A FLIPR assay was conducted to monitor agonist and antagonist selectivity for compounds of the invention against the CBI and GLP-1 receptors. Percentage activation and percentage inhibition values were determined for each compound on each of the GPCRs listed above. Agonist selectivity was determined upon initial addition of compounds followed by 10 minute incubation at 25° C. Following compound incubation, reference agonists were added at EC80 to determine percentage inhibition.
# (§2) Agonist percentage activation determinations were obtained by assaying sample compounds and referencing the Emax control for each of the GPCRs profiled. Antagonist percentage inhibition determinations were obtained by assaying sample compounds and referencing the control EC80 wells for each of the GPCRs profiled. The protocol design is as follows:
# (§3) Unless specified otherwise, all sample compounds were diluted in 100% anhydrous DMSO including all serial dilutions. Occasionally sample compounds were provided in a different solvent, in this case all master stock dilutions were performed in the specified diluent. All control wells contained identical solvent final concentrations as sample compound wells.
# (§4) Sample compounds were transferred from a master stock solution into a daughter plate that was used in the assay. Each sample compound was diluted into assay buffer (1×HBSS with 20 mM HEPES) at an appropriate concentration to obtain final concentrations.
# (§5) All sample compounds were plated at 1 μM in duplicate for assaying against all GPCRs. Reference agonists were handled as mentioned above serving as assay control. These reference agonists were handled as described above for both EMax and EC80 control wells. Assay was read for 90 seconds using the FLIPRTETRA. (This assay run added sample compounds and reference agonist to respective rows.) At the completion of the first “Single Addition” assay run, assay plate was removed from the FLIPRTetra and placed at 25° C. for 10 minutes.
# (§6) All plates were subjected to appropriate baseline corrections. Once baseline corrections were processed, maximum fluorescence values were exported and data manipulated to calculate percentage activation, percentage inhibition, Z′, EC50, and IC50. Percentage activation data was calculated using Emax as 100% control. Percentage inhibition was calculated using EC80 as 0% inhibition.
# [2] = tested on: non-insulin dependent diabetic mellitus (NIDDM) male mice (C57BL/KsJ-db/db Jcl); test: In vivo analysis in the db/db mouse (serum insulin, serum glucose, weight); conditions: for percentage increase in insulin levels: FIG. 1; for percentage decrease in glucose levels: FIG. 2; for percentage decrease in weight: FIG. 3
# Description: […] All animals were allowed free access to normal laboratory chow and water.
# Serum glucose and insulin levels were determined by Enzymatic Method (Mutaratase-GOD) and ELISA (mouse insulin assay kit) from orbital sinus blood samples obtained before (pretreatment) and 90 minutes after the last vehicle and/or test substance administration (postreatment) and percent change was determined.
# CB1 receptor [3] = biological target: T1, CB1 receptor; test: FLIPR calcium flux assay, antagonist format, CB1; assay type: cell-based; conditions: reference agonist CP-55,940 at EC80 as 0% inhibition
# Description: as §1, §2, §3, §4
# (§7) Using the EC50 values determined previously, stimulated all pre-incubated sample compound and reference antagonist (if applicable) wells with EC80 of reference agonist. Read for 90 seconds using the FLIPRTETRA. (This assay added reference agonist to respective wells—then fluorescence measurements were collected to calculate percentage inhibition.)
# as §6
# GLP-1 receptor [4] = biological target: T2, GLP-1 receptor (Homo sapiens, UniProt P43220); test: FLIPR calcium flux assay, antagonist format, GLP-1; assay type: cell-based; conditions: 1 μM, reference ligand Glucagon at EC80 as 0% inhibition; read-out: % Inhibition Antagonist GLP-1
# T2 sequence (P43220 24-463): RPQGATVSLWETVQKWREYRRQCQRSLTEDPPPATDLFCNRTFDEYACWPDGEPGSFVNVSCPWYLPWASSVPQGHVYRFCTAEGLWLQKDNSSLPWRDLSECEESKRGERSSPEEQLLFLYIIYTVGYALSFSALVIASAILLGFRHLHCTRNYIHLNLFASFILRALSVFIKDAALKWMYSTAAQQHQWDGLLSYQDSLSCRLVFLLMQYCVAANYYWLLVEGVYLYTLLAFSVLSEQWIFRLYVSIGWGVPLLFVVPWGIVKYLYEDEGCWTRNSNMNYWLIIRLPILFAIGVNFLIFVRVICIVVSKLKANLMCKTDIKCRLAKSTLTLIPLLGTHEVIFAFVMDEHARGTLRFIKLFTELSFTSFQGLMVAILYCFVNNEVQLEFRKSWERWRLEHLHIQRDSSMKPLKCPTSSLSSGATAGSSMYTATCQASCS
# Description: as §1, §2, §3, §4, §7, §6
# GLP-1 receptor [5] = biological target: T2, GLP-1 receptor; test: FLIPR calcium flux assay, agonist format, GLP-1; assay type: cell-based; conditions: Emax of reference ligand Glucagon as 100%
# Description: as §1, §2, §3, §4, §5, §6
# in vivo = test: in vivo; parameters: species or system Sprague-Dawley rats; conditions: rat; for bioavailability: male, Sprague-Dawley, po, 20 mg/kg; for half-life: male Sprague-Dawley rats
# Description: The pharmacokinetics of compounds 4a, 6a, and 12 was evaluated in male Sprague-Dawley rats (n=3) following single intravenous (i.v., 1 mg/kg) or oral (p.o., 20 mg/kg) doses.
# [6] = 200 mg/kg oral gavage once daily for three days
# [7] = iv, single i.v. dose 1 mg/kg, read-out: t1/2 (i.v., hr) (converted)
# [8] = single oral dose 20 mg/kg, read-out: t1/2 (p.o., hr) (converted)
# T1 sequence (P21554 whole entry): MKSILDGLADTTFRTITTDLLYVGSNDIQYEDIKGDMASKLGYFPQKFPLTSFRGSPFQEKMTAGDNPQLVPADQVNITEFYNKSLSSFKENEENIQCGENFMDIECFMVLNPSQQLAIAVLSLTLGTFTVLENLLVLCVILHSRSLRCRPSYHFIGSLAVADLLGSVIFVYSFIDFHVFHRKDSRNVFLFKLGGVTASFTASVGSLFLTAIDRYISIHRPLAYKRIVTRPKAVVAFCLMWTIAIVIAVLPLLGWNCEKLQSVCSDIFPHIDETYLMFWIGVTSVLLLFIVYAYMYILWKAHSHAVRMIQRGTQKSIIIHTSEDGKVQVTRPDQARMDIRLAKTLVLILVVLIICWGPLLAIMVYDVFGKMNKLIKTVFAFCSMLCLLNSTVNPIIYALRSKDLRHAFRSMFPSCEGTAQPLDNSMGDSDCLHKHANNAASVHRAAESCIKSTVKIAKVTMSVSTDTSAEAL
SMILES,activation at 1 µM (CB1 receptor [1]) [%],"percentage increase in insulin levels [2, 6]","percentage decrease in glucose levels [2, 6]","percentage decrease in weight [2, 6]",inhibition at 1 µM (CB1 receptor [3]) [%],inhibition at 1 µM (GLP-1 receptor [4]) [%],activation at 1 µM (GLP-1 receptor [5]) [%],percentage increase in insulin levels ([2]; 100 mg/kg oral gavage once daily for three days),bioavailability (in vivo) [%],half-life (in vivo; [7]) [h],half-life (in vivo; [8]) [h],percentage increase in insulin levels ([2]; 300 mg/kg oral),percentage decrease in glucose levels ([2]; 300 mg/kg oral),percentage decrease in weight ([2]; 300 mg/kg oral)
CC(C)Cc1ccc([C@H](C)C(=O)N(C)CC[C@@H](Oc2ccc(C(F)(F)F)cc2)c2ccccc2)cc1 [Compound 12a],3.6,significant increases,significant decreases,significant decreases,52.2,4.5,7.6,,,,,,,
CC(C)Cc1ccc([C@H](C)C(=O)N(C)CC[C@H](Oc2ccc(C(F)(F)F)cc2)c2ccccc2)cc1 [Compound 12b],8.3,significant increases,significant decreases,significant decreases,1.6,5.9,24.5,significant increase,,,,,,
C[C@H](C(=O)NCC[C@@H](Oc1ccc(C(F)(F)F)cc1)c1ccccc1)c1cccc(C(=O)c2ccccc2)c1 [Compound 6a],4.2,significant increases,significant decreases,significant decreases,77.9,-7.2,38.6,,14.8,1.4,2.1,,,
CC(C)Cc1ccc([C@H](C)C(=O)N(C)CCC(Oc2ccc(C(F)(F)F)cc2)c2ccccc2)cc1 (stereo partly drawn) [Compound 12],4.1,,,,3.2,-14.9,44.6,,6.5,1.7,1.4,,,
"CN(C)C(=N)N=C(N)N [metformin, reference compound]",,,,,,,,,,,,does not show an increase,significant decrease,does not show a decrease
CC(C)Cc1ccc([C@H](C)C(=O)NCC[C@@H](Oc2ccc(C(F)(F)F)cc2)c2ccccc2)cc1 [Compound 4a],3.2,,,,7.7,-21.8,39.9,,5.1,0.6,1,,,
